Source: PubChem BioAssay AID248 (DTP/NCI, 2004)
Values joined by “and” are separate entries in the source; they are usually repeats but may differ in a detail not shown here. Identical values can stand only once. Inconclusive results and toxic doses are left out.

System: L1210 leukemia ip in BDF1 mice, survival T/C
Experiment: NCI In Vivo Anticancer Drug Screen. Data for tumor model L1210 Leukemia (intraperitoneal) in B6D2F1 (BDF1) mice
Details: endpoint: mean survival time, higher = longer survival
How it was run: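 Ratio derived from survival: compound-dosed mice over vehicle-dosed mice, all bearing a transplantable tumor.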

[1] = dose: 100.0 mg/kg/injection, schedule: Q01DX009 (ip), vehicle: Klucel (hydroxypropylcellulose) (HPC)
[2] = dose: 200.0 mg/kg/injection, schedule: Q01DX009 (ip), vehicle: Klucel (hydroxypropylcellulose) (HPC)
[3] = dose: 100.0 mg/kg/injection, schedule: Q04DX003 (ip), vehicle: saline
[4] = dose: 200.0 mg/kg/injection, schedule: Q04DX003 (ip), vehicle: saline
[5] = dose: 400.0 mg/kg/injection, schedule: Q04DX003 (ip), vehicle: saline
[6] = dose: 100.0 mg/kg/injection, schedule: Q04DX003 (ip), vehicle: saline with Tween-80
[7] = dose: 400.0 mg/kg/injection, schedule: Q04DX003 (ip), vehicle: saline with Tween-80
[8] = dose: 25.0 mg/kg/injection, schedule: Q01DX009 (ip), vehicle: Klucel (hydroxypropylcellulose) (HPC)
[9] = dose: 50.0 mg/kg/injection, schedule: Q01DX009 (ip), vehicle: saline with Tween-80
[10] = dose: 100.0 mg/kg/injection, schedule: Q01DX009 (ip), vehicle: saline with Tween-80
[11] = dose: 200.0 mg/kg/injection, schedule: Q01DX009 (ip), vehicle: saline with Tween-80
[12] = dose: 100.0 mg/kg/injection, schedule: Q04DX002 (ip), vehicle: saline with Tween-80
[13] = dose: 200.0 mg/kg/injection, schedule: Q04DX002 (ip), vehicle: saline with Tween-80
[14] = dose: 400.0 mg/kg/injection, schedule: Q04DX002 (ip), vehicle: saline with Tween-80

`COC1=C(OC)C(=O)C(SCCCc2ccccc2)=CC1=O` was tested, and the T/C (dose: 1.56 mg/kg/injection, schedule: Q01DX009 (im), vehicle: olive oil, sesame oil, peanut oil) was 101 % of control, the T/C (dose: 3.13 mg/kg/injection, schedule: Q01DX009 (im), vehicle: olive oil, sesame oil, peanut oil) was 96 % of control and the T/C (dose: 6.25 mg/kg/injection, schedule: Q01DX009 (im), vehicle: olive oil, sesame oil, peanut oil) was 98 % of control. The T/C (dose: 12.5 mg/kg/injection, schedule: Q01DX009 (im), vehicle: olive oil, sesame oil, peanut oil) was 101 % of control and the T/C (dose: 25.0 mg/kg/injection, schedule: Q01DX009 (im), vehicle: olive oil, sesame oil, peanut oil) was 98 % of control.

In the case of `COC(=O)c1cc(O)c(C(=O)OC)s1`, the T/C [1] is reported as 101 % of control, the T/C [2] is reported as 98 % of control and the T/C (dose: 400.0 mg/kg/injection, schedule: Q01DX009 (ip), vehicle: Klucel (hydroxypropylcellulose) (HPC)) is reported as 95 % of control.

In the case of `CC(=O)Nc1ccc(OCCOC(=O)Nc2ccc(Cl)c(C(F)(F)F)c2)cc1`, the T/C (dose: 12.5 mg/kg/injection, schedule: Q01DX009 (ip), vehicle: carboxymethylcellulose (CMC)) is reported as 95 % of control and 100 % of control, the T/C (dose: 25.0 mg/kg/injection, schedule: Q01DX009 (ip), vehicle: carboxymethylcellulose (CMC)) is reported as 95 % of control and 97 % of control and the T/C (dose: 25.0 mg/kg/injection, schedule: Q04DX002 (ip), vehicle: carboxymethylcellulose (CMC)) is reported as 92 % of control and 93 % of control. For the same compound, the T/C (dose: 50.0 mg/kg/injection, schedule: Q04DX002 (ip), vehicle: carboxymethylcellulose (CMC)) was 95 % of control and 90 % of control, the T/C (dose: 100.0 mg/kg/injection, schedule: Q01DX001 (ip), vehicle: carboxymethylcellulose (CMC)) was 97 % of control and 101 % of control and the T/C (dose: 100.0 mg/kg/injection, schedule: Q04DX003 (ip), vehicle: carboxymethylcellulose (CMC)) was 92 % of control and 101 % of control. For the same compound, the T/C (dose: 200.0 mg/kg/injection, schedule: Q01DX001 (ip), vehicle: carboxymethylcellulose (CMC)) was 97 % of control and 102 % of control, the T/C (dose: 200.0 mg/kg/injection, schedule: Q04DX002 (ip), vehicle: carboxymethylcellulose (CMC)) was 94 % of control and the T/C (dose: 200.0 mg/kg/injection, schedule: Q04DX003 (ip), vehicle: carboxymethylcellulose (CMC)) was 92 % of control. For the same compound, the T/C (dose: 400.0 mg/kg/injection, schedule: Q01DX001 (ip), vehicle: carboxymethylcellulose (CMC)) was 97 % of control and 87 % of control, the T/C (dose: 400.0 mg/kg/injection, schedule: Q01DX009 (ip), vehicle: carboxymethylcellulose (CMC)) was 88 % of control and 90 % of control and the T/C (dose: 400.0 mg/kg/injection, schedule: Q04DX002 (ip), vehicle: carboxymethylcellulose (CMC)) was 94 % of control and 91 % of control. The T/C (dose: 400.0 mg/kg/injection, schedule: Q04DX003 (ip), vehicle: carboxymethylcellulose (CMC)) was 92 % of control and 97 % of control.

`OC(Cc1cncc(CC(O)(C(F)(F)F)C(F)(F)F)n1)(C(F)(F)F)C(F)(F)F` was tested, and the T/C (dose: 100.0 mg/kg/injection, schedule: Q01DX009 (ip), vehicle: saline) was 95 % of control, the T/C [3] was 96 % of control and the T/C (dose: 200.0 mg/kg/injection, schedule: Q01DX009 (ip), vehicle: saline) was 105 % of control. The T/C [4] was 92 % of control, the T/C (dose: 400.0 mg/kg/injection, schedule: Q01DX009 (ip), vehicle: saline) was 98 % of control and the T/C [5] was 97 % of control.

For `COc1cc2c(cc1OC)C1(CCBr)C3CC4C(=CCOC5CC(=O)N2C1C54)CN3C(=O)Cc1ccccc1` (stereo unspecified), the T/C (dose: 75.0 mg/kg/injection, schedule: Q01DX001 (ip), vehicle: saline) was 107 % of control.

For `Cc1cc(N(CCCOS(C)(=O)=O)CCCOS(C)(=O)=O)ccc1C=Nc1ccc2ccccc2c1`, the T/C (dose: 25.0 mg/kg/injection, schedule: Q04DX003 (ip), vehicle: saline with Tween-80) was 98 % of control, the T/C (dose: 50.0 mg/kg/injection, schedule: Q04DX003 (ip), vehicle: saline with Tween-80) was 98 % of control and the T/C [6] was 98 % of control. The T/C [7] was 93 % of control.

In the case of `Cc1ccc(C(=O)c2ccc([N+](=O)[O-])cc2)cc1`, the T/C (dose: 50.0 mg/kg/injection, schedule: Q01DX001 (ip), vehicle: saline) is reported as 103 % of control, the T/C (dose: 100.0 mg/kg/injection, schedule: Q01DX001 (ip), vehicle: saline) is reported as 101 % of control and the T/C (dose: 200.0 mg/kg/injection, schedule: Q01DX001 (ip), vehicle: saline) is reported as 92 % of control. The T/C (dose: 400.0 mg/kg/injection, schedule: Q01DX001 (ip), vehicle: saline) was 114 % of control.

For `CC1(C)N=C(N)N=C(N)N1c1cc(Cl)c(Cl)cc1Cl`, the T/C (dose: 6.0 mg/kg/injection, schedule: Q01DX009 (ip), vehicle: Klucel (hydroxypropylcellulose) (HPC)) was 105 % of control, the T/C (dose: 12.0 mg/kg/injection, schedule: Q01DX009 (ip), vehicle: Klucel (hydroxypropylcellulose) (HPC)) was 103 % of control and the T/C (dose: 12.0 mg/kg/injection, schedule: Q04DX003 (ip), vehicle: Klucel (hydroxypropylcellulose) (HPC)) was 95 % of control. For the same compound, the T/C [8] was 96 % of control and 102 % of control, the T/C (dose: 25.0 mg/kg/injection, schedule: Q04DX003 (ip), vehicle: Klucel (hydroxypropylcellulose) (HPC)) was 101 % of control and the T/C (dose: 50.0 mg/kg/injection, schedule: Q01DX009 (ip), vehicle: Klucel (hydroxypropylcellulose) (HPC)) was 108 % of control. For the same compound, the T/C (dose: 50.0 mg/kg/injection, schedule: Q04DX003 (ip), vehicle: Klucel (hydroxypropylcellulose) (HPC)) was 102 % of control.

With `CC(N)C(C)O` (stereo unspecified) the T/C [3] was 96 % of control, the T/C [4] was 101 % of control and the T/C [5] was 101 % of control.

For `c1ccc(CC23CCCCC2N3)cc1` (stereo unspecified), the T/C [9] was 95 % of control.

With `COc1ccc(N(N=O)C(C)C)cc1` the T/C (dose: 12.5 mg/kg/injection, schedule: Q01DX009 (ip), vehicle: saline with Tween-80) was 87 % of control, the T/C (dose: 25.0 mg/kg/injection, schedule: Q01DX009 (ip), vehicle: saline with Tween-80) was 94 % of control and the T/C [9] was 87 % of control. For the same compound, the T/C [10] was 89 % of control and the T/C [11] was 92 % of control.

`CN(C)c1nc(N)c(N=O)c(N)n1` was tested, and the T/C [12] was 111 % of control, the T/C [13] was 107 % of control and the T/C [14] was 104 % of control.

`COc1ccc(S(=O)(=O)F)cc1C(=O)O` was tested, and the T/C (dose: 100.0 mg/kg/injection, schedule: Q01DX001 (ip), vehicle: saline with Tween-80) was 100 % of control, the T/C [10] was 100 % of control and the T/C [12] was 90 % of control. For the same compound, the T/C [6] was 94 % of control, the T/C (dose: 200.0 mg/kg/injection, schedule: Q01DX001 (ip), vehicle: saline with Tween-80) was 92 % of control and the T/C [11] was 100 % of control. For the same compound, the T/C [13] was 113 % of control, the T/C (dose: 200.0 mg/kg/injection, schedule: Q04DX003 (ip), vehicle: saline with Tween-80) was 97 % of control and the T/C (dose: 400.0 mg/kg/injection, schedule: Q01DX001 (ip), vehicle: saline with Tween-80) was 94 % of control. For the same compound, the T/C [14] was 86 % of control and the T/C [7] was 88 % of control.

`O[C@H](c1cc(C(F)(F)F)nc2c(C(F)(F)F)cccc12)[C@@H]1CCCCN1` was tested, and the T/C (dose: 12.5 mg/kg/injection, schedule: Q01DX009 (ip), vehicle: Klucel (hydroxypropylcellulose) (HPC)) was 94 % of control, the T/C (dose: 12.5 mg/kg/injection, schedule: Q04DX003 (ip), vehicle: saline) was 98 % of control and the T/C [8] was 103 % of control. For the same compound, the T/C (dose: 25.0 mg/kg/injection, schedule: Q04DX003 (ip), vehicle: saline) was 98 % of control and the T/C (dose: 50.0 mg/kg/injection, schedule: Q04DX003 (ip), vehicle: saline) was 97 % of control.

`O=C(Nc1ccc(C2=NCCN2)cc1)c1ccc(C(=O)Nc2ccc(C3=NCCN3)cc2)o1` was tested, and the T/C (dose: 15.0 mg/kg/injection, schedule: Q01DX Z (ip), vehicle: carboxymethylcellulose (CMC)) was 113 % of control, the T/C (dose: 30.0 mg/kg/injection, schedule: Q01DX Z (ip), vehicle: carboxymethylcellulose (CMC)) was 120 % of control and the T/C (dose: 120.0 mg/kg/injection, schedule: Q01DX Z (ip), vehicle: carboxymethylcellulose (CMC)) was 248 % of control. The T/C (dose: 240.0 mg/kg/injection, schedule: Q01DX Z (ip), vehicle: saline) was 252 % of control and the T/C (dose: 480.0 mg/kg/injection, schedule: Q01DX Z (ip), vehicle: saline) was 111 % of control.

With `Cc1cccc(C)c1NC(=O)Oc1ccccc1C(N)=O` the T/C [1] was 97 % of control, the T/C (dose: 100.0 mg/kg/injection, schedule: Q04DX003 (ip), vehicle: Klucel (hydroxypropylcellulose) (HPC)) was 98 % of control and the T/C [2] was 100 % of control. The T/C (dose: 200.0 mg/kg/injection, schedule: Q04DX003 (ip), vehicle: Klucel (hydroxypropylcellulose) (HPC)) was 104 % of control and the T/C (dose: 400.0 mg/kg/injection, schedule: Q04DX003 (ip), vehicle: Klucel (hydroxypropylcellulose) (HPC)) was 94 % of control.
